Measurements: ChEMBL document CHEMBL2331477, “Effect of helical conformation and side chain structure on γ-secretase inhibition by β-peptide foldamers: insight into substrate recognition” (J Med Chem, 2013)
The source made the active and inactive calls. The rule behind the calls is not given here.

Legend:
[1] = target: Gamma-secretase; assay: Inhibition of gamma-secretase in human HEK293 cells expressing APPNL/NotchDeltaE/EGFP/UAS-firefly luciferase assessed as inhibition of notch intracellular cytoplasmic domain secretion by ELISA; format: cell-based
[2] = target: T1, Gamma-secretase (Homo sapiens) (UniProt Q96BI3+Q9NZ42+Q8WW43+P49768+Q92542+P49810); assay: Displacement of biotinylated PS1NTF from gamma-secretase (unknown origin); format: protein-complex assay
[3] = target: Gamma-secretase; assay: Inhibition of gamma-secretase in human HEK293 cells expressing APPNL/NotchDeltaE/EGFP/UAS-firefly luciferase assessed as inhibition of Abeta42 secretion by ELISA; format: cell-based
[4] = target: Gamma-secretase; assay: Inhibition of gamma-secretase (unknown origin) expressed in N2a NL/N cells coexpressing betaAPPNL and NotchdeltaE assessed as Abeta40 secretion by ELISA; format: cell-based, Homo sapiens
[5] = target: T1, Gamma-secretase (Homo sapiens); assay: Inhibition of gamma-secretase in human H4 glioma cells assessed as Abeta production at 0.1 to 10 µM by immunoblot analysis; format: cell-based
[6] = target: T1, Gamma-secretase (Homo sapiens); assay: Ratio of IC50 for gamma-secretase-mediated inhibition of notch intracellular cytoplasmic domain secretion to IC50 for gamma-secretase-mediated inhibition of Abeta42 secretion in human HEK293 cells expressing APPNL/NotchDeltaE/EGFP/UAS-firefly luciferase by ELISA; format: cell-based
[7] = target: T1, Gamma-secretase (Homo sapiens); assay: Inhibition of gamma-secretase (unknown origin) expressed in N2a NL/N cells coexpressing betaAPPNL and NotchdeltaE assessed as Abeta40 secretion at 100 nM by ELISA; format: cell-based
[8] = target: Gamma-secretase; assay: Inhibition of gamma-secretase (unknown origin) expressed in N2a NL/N cells coexpressing betaAPPNL and NotchdeltaE assessed as Abeta42 secretion by ELISA; format: cell-based, Homo sapiens
[9] = target: T1, Gamma-secretase (Homo sapiens); assay: Inhibition of gamma-secretase (unknown origin) expressed in N2a NL/N cells coexpressing betaAPPNL and NotchdeltaE assessed as Abeta42 secretion at 100 nM by ELISA; format: cell-based
[10] = target: Gamma-secretase; assay: Inhibition of gamma-secretase in human HEK293 cells expressing APPNL/NotchDeltaE/EGFP/UAS-firefly luciferase assessed as inhibition of IAbeta40 secretion by ELISA; format: cell-based

Row | SMILES | IC50 [4] [µM] | inhibition [7] | IC50 [8] [µM] | inhibition [9] | also measured
1 | CC(=O)N[C@H]1CCC[C@@H]1C(=O)N[C@H]1CCC[C@@H]1C(=O)NC(CO)CC(=O)N[C@H]1CCC[C@@H]1C(=O)N[C@H]1CCC[C@@H]1C(=O)N[C@H]1CCC[C@@H]1C(=O)N[C@H]1CCC[C@@H]1C(=O)N[C@H]1CCC[C@@H]1C(=O)N[C@H]1CCC[C@@H]1C(=O)N[C@H]1CCC[C@@H]1C(=O)N[C@H]1CCC[C@@H]1C(=O)N[C@H]1CCC[C@@H]1C(N)=O (single isomer, unassigned) | 0.000402 | Active | 0.00083 | Active | IC50 [1]: 0.0413 µM; Activity [2]: Active; IC50 [3]: 0.0864 µM; inhibition [5]: Active; Ratio IC50 [6]: 0.478; IC50 [10]: 0.0842 µM
2 | CC(=O)N[C@H]1CCC[C@@H]1C(=O)N[C@H]1CCC[C@@H]1C(=O)NCCC(=O)N[C@H]1CCC[C@@H]1C(=O)N[C@H]1CCC[C@@H]1C(=O)N[C@H]1CCC[C@@H]1C(=O)N[C@H]1CCC[C@@H]1C(=O)N[C@H]1CCC[C@@H]1C(=O)N[C@H]1CCC[C@@H]1C(=O)N[C@H]1CCC[C@@H]1C(=O)N[C@H]1CCC[C@@H]1C(=O)N[C@H]1CCC[C@@H]1C(N)=O | 0.00247 | Active | 0.00747 | Active | 
3 | CC(=O)N[C@H]1CCC[C@@H]1C(=O)N[C@H]1CCC[C@@H]1C(=O)N[C@H]1CCC[C@@H]1C(=O)N[C@H]1CCC[C@@H]1C(=O)N[C@H]1CCC[C@@H]1C(=O)N[C@H]1CCC[C@@H]1C(=O)N[C@H]1CCC[C@@H]1C(=O)N[C@H]1CCC[C@@H]1C(=O)N[C@H]1CCC[C@@H]1C(=O)N[C@H]1CCC[C@@H]1C(=O)N[C@H]1CCC[C@@H]1C(=O)N[C@H]1CCC[C@@H]1C(N)=O | 0.00881 |  | 0.00993 |  | IC50 [1]: 0.0204 µM; IC50 [3]: 0.626 µM; Ratio IC50 [6]: 0.0326; IC50 [10]: 1.18 µM
4 | CC(=O)N[C@H]1CCC[C@@H]1C(=O)N[C@H]1CCC[C@@H]1C(=O)N[C@H]1CCC[C@@H]1C(=O)N[C@H]1CCC[C@@H]1C(=O)N[C@H]1CCC[C@@H]1C(=O)N[C@H]1CCC[C@@H]1C(=O)N[C@H]1CCC[C@@H]1C(=O)N[C@H]1CCC[C@@H]1C(=O)N[C@H]1CCC[C@@H]1C(=O)N[C@H]1CCC[C@@H]1C(=O)N[C@H]1CCC[C@@H]1C(N)=O | 0.244 |  | 0.225 |  | 
5 | CC(=O)N[C@H]1CCC[C@@H]1C(=O)N[C@H]1CCC[C@@H]1C(=O)N[C@H]1CCC[C@@H]1C(=O)N[C@H]1CCC[C@@H]1C(=O)N[C@H]1CCC[C@@H]1C(=O)N[C@H]1CCC[C@@H]1C(=O)N[C@H]1CCC[C@@H]1C(=O)N[C@H]1CCC[C@@H]1C(=O)N[C@H]1CCC[C@@H]1C(=O)N[C@H]1CCC[C@@H]1C(N)=O | 2.28 |  | 5.21 |  | 
6 | CC(=O)N1CCC[C@@H]1C(=O)N1CCC[C@@H]1C(=O)N1CCC[C@@H]1C(=O)N1CCC[C@@H]1C(=O)N1CCC[C@@H]1C(=O)N1CCC[C@@H]1C(N)=O | > 30 |  | > 30 |  | 
7 | CC(=O)N1CCC[C@H]1C(=O)N1CCC[C@H]1C(=O)N1CCC[C@H]1C(=O)N1CCC[C@H]1C(=O)N1CCC[C@H]1C(=O)N1CCC[C@H]1C(=O)N1CCC[C@H]1C(=O)N1CCC[C@H]1C(=O)N1CCC[C@H]1C(=O)N1CCC[C@H]1C(=O)N1CCC[C@H]1C(N)=O | > 30 |  | > 30 |  | 
8 | CC(=O)N1CCC[C@@H]1C(=O)N1CCC[C@@H]1C(=O)N1CCC[C@@H]1C(=O)N1CCC[C@@H]1C(=O)N1CCC[C@@H]1C(=O)N1CCC[C@@H]1C(=O)N1CCC[C@@H]1C(=O)N1CCC[C@@H]1C(=O)N1CCC[C@@H]1C(N)=O | > 30 |  | > 30 |  | 
9 | CC(=O)N[C@H]1CCC[C@@H]1C(=O)N[C@H]1CCC[C@@H]1C(=O)N[C@H]1CCC[C@@H]1C(=O)N[C@H]1CCC[C@@H]1C(=O)N[C@H]1CCC[C@@H]1C(=O)N[C@H]1CCC[C@@H]1C(=O)N[C@H]1CCC[C@@H]1C(=O)N[C@H]1CCC[C@@H]1C(=O)NC(CO)CC(=O)N[C@H]1CCC[C@@H]1C(=O)N[C@H]1CCC[C@@H]1C(=O)N[C@H]1CCC[C@@H]1C(N)=O (single isomer, unassigned) |  | inactive |  | inactive | 
10 | CC(=O)N1CCC[C@H]1C(=O)N1CCC[C@H]1C(=O)N1CCC[C@H]1C(=O)N1CCC[C@H]1C(=O)N1CCC[C@H]1C(=O)N1CCC[C@H]1C(=O)N1CCC[C@H]1C(=O)N1CCC[C@H]1C(=O)N1CCC[C@H]1C(N)=O | > 30 |  | > 30 |  | 
11 | CC(=O)N1CCC[C@@H]1C(=O)N1CCC[C@@H]1C(=O)N1CCC[C@@H]1C(=O)N1CCC[C@@H]1C(=O)N1CCC[C@@H]1C(=O)N1CCC[C@@H]1C(=O)N1CCC[C@@H]1C(=O)N1CCC[C@@H]1C(=O)N1CCC[C@@H]1C(=O)N1CCC[C@@H]1C(=O)N1CCC[C@@H]1C(N)=O | > 30 |  | > 30 |  | 
12 | CC(=O)N[C@H]1CCC[C@@H]1C(=O)N[C@H]1CCC[C@@H]1C(=O)N[C@H]1CCC[C@@H]1C(=O)N[C@H]1CCC[C@@H]1C(=O)N[C@H]1CCC[C@@H]1C(=O)N[C@H]1CCC[C@@H]1C(=O)N[C@H]1CCC[C@@H]1C(=O)N[C@H]1CCC[C@@H]1C(=O)N[C@@H](CCC(N)=O)CC(=O)N[C@H]1CCC[C@@H]1C(=O)N[C@H]1CCC[C@@H]1C(=O)N[C@H]1CCC[C@@H]1C(N)=O |  | inactive |  | inactive | 
13 | CC(=O)N[C@H]1CCC[C@@H]1C(=O)N[C@H]1CCC[C@@H]1C(=O)N[C@H]1CCC[C@@H]1C(=O)N[C@H]1CCC[C@@H]1C(=O)N[C@H]1CCC[C@@H]1C(=O)N[C@H](CC(=O)N[C@H]1CCC[C@@H]1C(=O)N[C@H]1CCC[C@@H]1C(=O)N[C@H]1CCC[C@@H]1C(=O)N[C@H]1CCC[C@@H]1C(=O)N[C@H]1CCC[C@@H]1C(=O)N[C@H]1CCC[C@@H]1C(N)=O)CC(C)C |  | inactive |  | inactive | 
14 | CC(=O)N[C@H]1CCC[C@@H]1C(=O)N[C@H]1CCC[C@@H]1C(=O)N[C@@H](C)CC(=O)N[C@H]1CCC[C@@H]1C(=O)N[C@H]1CCC[C@@H]1C(=O)N[C@H]1CCC[C@@H]1C(=O)N[C@H]1CCC[C@@H]1C(=O)N[C@H]1CCC[C@@H]1C(=O)N[C@H]1CCC[C@@H]1C(=O)N[C@H]1CCC[C@@H]1C(=O)N[C@H]1CCC[C@@H]1C(=O)N[C@H]1CCC[C@@H]1C(N)=O |  | Active |  | Active | 
15 | O=S(=O)(N[C@H](CO)C(C(F)(F)F)C(F)(F)F)c1ccc(Cl)s1 [BEGACESTAT] | 0.203 |  | 0.414 |  | 
16 | CC(=O)N[C@H]1CCC[C@@H]1C(=O)N[C@H]1CCC[C@@H]1C(=O)N[C@H]1CCC[C@@H]1C(=O)N[C@H]1CCC[C@@H]1C(=O)N[C@H]1CCC[C@@H]1C(=O)N[C@@H](CCC(=O)O)CC(=O)N[C@H]1CCC[C@@H]1C(=O)N[C@H]1CCC[C@@H]1C(=O)N[C@H]1CCC[C@@H]1C(=O)N[C@H]1CCC[C@@H]1C(=O)N[C@H]1CCC[C@@H]1C(=O)N[C@H]1CCC[C@@H]1C(N)=O |  | inactive |  | inactive | 
17 | CC(=O)N[C@H]1CCC[C@@H]1C(=O)N[C@H]1CCC[C@@H]1C(=O)N[C@H]1CCC[C@@H]1C(=O)N[C@H]1CCC[C@@H]1C(=O)N[C@H]1CCC[C@@H]1C(=O)N[C@@H](CC(N)=O)CC(=O)N[C@H]1CCC[C@@H]1C(=O)N[C@H]1CCC[C@@H]1C(=O)N[C@H]1CCC[C@@H]1C(=O)N[C@H]1CCC[C@@H]1C(=O)N[C@H]1CCC[C@@H]1C(=O)N[C@H]1CCC[C@@H]1C(N)=O |  | inactive |  | inactive | 
18 | CC(=O)N1CCC[C@H]1C(=O)N1CCC[C@H]1C(=O)N1CCC[C@H]1C(=O)N1CCC[C@H]1C(=O)N1CCC[C@H]1C(=O)N1CCC[C@H]1C(N)=O | > 30 |  | > 30 |  | 
19 | CC(=O)N[C@H]1CCC[C@@H]1C(=O)N[C@H]1CCC[C@@H]1C(=O)N[C@H]1CCC[C@@H]1C(=O)N[C@H]1CCC[C@@H]1C(=O)N[C@H]1CCC[C@@H]1C(=O)N[C@H](CO)CC(=O)N[C@H]1CCC[C@@H]1C(=O)N[C@H]1CCC[C@@H]1C(=O)N[C@H]1CCC[C@@H]1C(=O)N[C@H]1CCC[C@@H]1C(=O)N[C@H]1CCC[C@@H]1C(=O)N[C@H]1CCC[C@@H]1C(N)=O |  | inactive |  | inactive | 
20 | CC(=O)N[C@H]1CCC[C@@H]1C(=O)N[C@H]1CCC[C@@H]1C(=O)N[C@H]1CCC[C@@H]1C(=O)N[C@H]1CCC[C@@H]1C(=O)N[C@H]1CCC[C@@H]1C(=O)N[C@H]1CCC[C@@H]1C(=O)N[C@H]1CCC[C@@H]1C(=O)N[C@H]1CCC[C@@H]1C(=O)N[C@H](CC(=O)N[C@H]1CCC[C@@H]1C(=O)N[C@H]1CCC[C@@H]1C(=O)N[C@H]1CCC[C@@H]1C(N)=O)CC(C)C |  | inactive |  | inactive | 
21 | CC(=O)N[C@H]1CCC[C@@H]1C(=O)N[C@H]1CCC[C@@H]1C(=O)N[C@H]1CCC[C@@H]1C(=O)N[C@H]1CCC[C@@H]1C(=O)N[C@H]1CCC[C@@H]1C(=O)N[C@H]1CCC[C@@H]1C(=O)N[C@H]1CCC[C@@H]1C(=O)N[C@H]1CCC[C@@H]1C(=O)N[C@@H](CC(N)=O)CC(=O)N[C@H]1CCC[C@@H]1C(=O)N[C@H]1CCC[C@@H]1C(=O)N[C@H]1CCC[C@@H]1C(N)=O |  | inactive |  | inactive | 
22 | CC(=O)N[C@H]1CCC[C@@H]1C(=O)N[C@H]1CCC[C@@H]1C(=O)N[C@@H](CS)CC(=O)N[C@H]1CCC[C@@H]1C(=O)N[C@H]1CCC[C@@H]1C(=O)N[C@H]1CCC[C@@H]1C(=O)N[C@H]1CCC[C@@H]1C(=O)N[C@H]1CCC[C@@H]1C(=O)N[C@H]1CCC[C@@H]1C(=O)N[C@H]1CCC[C@@H]1C(=O)N[C@H]1CCC[C@@H]1C(=O)N[C@H]1CCC[C@@H]1C(N)=O |  | Active |  | Active | 
